Data on 36 molecules can be found in patent publication US20230390319A1, “INTERFERON GENE STIMULATOR COMPOSITION COMPRISING INDOLIZINE DERIVATIVE AS ACTIVE INGREDIENT” (AJOU UNIVERSITY INDUSTRY-ACADEMIC COOPERATION FOUNDATION, priority 2020, published 2023).

One data set concerns THP-1 cells. Briefly: Cell viability assay (CellTiter Clo) in THP-1 cells. It counts as cell-based, Human. Conditions: THP-1 cells, 20 μM of each compound, co-treated with cGAMP (1 μg/ml). Here is the method:
(§1) Human monocytic THP-1 wild-type (WT) and STING knockout (KO) cell lines were obtained from InvivoGen. Cells were cultured in 1×RPMI 1640 medium containing 10% fetal bovine serum (FBS, Hyclone), 2.05 mM L-glutamine (Hyclone) and 1% penicillin (Corning) in a humidified incubator at 37° C. under 5% CO2.
Cells were analyzed using CellTiter Clo (CTG, Promega). […] was measured using a TECAN micro plate reader SPARK. Results were normalized to DMSO control.
(§2) THP-1 cells were co-treated with each of 86 indolizine derivatives and a very small amount of cGAMP (1 μg/ml), the immune response of the THP-1 cells was examined by ISRE reporter assay, and the cytotoxicity of co-treatment was also evaluated (Table 1). All results were compared by normalization to the reporter assay results obtained by treatment with cGAMP alone. […] Thus, Compound 42 was used in subsequent experiments.

A further data set has as its system ISRE reporter signal. In words: ISRE luciferase reporter assay, THP-1 cells co-treated with compound and cGAMP. It counts as cell-based, Human. The conditions noted are these: THP-1 cells, 20 μM of each compound, co-treated with cGAMP (1 μg/ml), 24 hours. Here is the method:
as §1
To confirm immune responses, THP-1 cells were placed in 384-well plates (Grenier), and treated with each compound and cGAMP (1 μg/ml), and after 24 hours, ISRE activity was analyzed. QUANTI-Luc assay (InvivoGen) was performed using the cell culture supernatant to confirm the luciferase reporter gene signal. Fluorescent signals were measured using a TECAN micro plate reader SPARK, and the results were normalized to DMSO control.
as §2
A general note: In a reporter assay the amount or activity of a reporter protein is the signal.

As to `COc1ccc(-c2cc(C(=O)c3ccc(C(F)(F)F)cc3)n3ccccc23)cc1` [Compound 44], the Normalized cell viability with THP-1 cells is given as 1.24. For the same molecule, the “Normalized RU (relative unit of ISRE reporter signal)” value with ISRE reporter signal is 0.89.
The like results for `CN(C)c1ccc(-c2cc(C(=O)c3ccc(C(F)(F)F)cc3)n3ccccc23)cc1` [Compound 45] were, in that order, 1.22 and 1.28.
Turning to `O=C(c1ccccc1)c1cc(-c2ccc(C(F)(F)F)cc2)c2ccccn12` [Compound 46], the Normalized cell viability in the data set on THP-1 cells turned out to be 1.25. Also, the “Normalized RU (relative unit of ISRE reporter signal)” value with ISRE reporter signal is reported as 1.08.
As for `CC(=O)c1ccc(-c2cc(C(=O)c3ccccc3)n3ccccc23)cc1` [Compound 47], the Normalized cell viability in the data set with THP-1 cells was determined as 1.12. For the same molecule, the “Normalized RU (relative unit of ISRE reporter signal)” value in the data set on ISRE reporter signal stood at 1.15.
The like results for `O=C(c1ccccc1)c1cc(-c2ccccc2)c2ccccn12` [Compound 48] were, in that order, 1.18 and 1.37.
For `COc1ccc(-c2cc(C(=O)c3ccccc3)n3ccccc23)cc1` [Compound 49], the Normalized cell viability in the data set on THP-1 cells worked out at 1.21. Also, in the data set with ISRE reporter signal, the “Normalized RU (relative unit of ISRE reporter signal)” value is recorded as 1.17.
The corresponding values for `CN(C)c1ccc(-c2cc(C(=O)c3ccccc3)n3ccccc23)cc1` [Compound 50] are 1.30 and 1.18.
With `COc1ccc(C(=O)c2cc(-c3ccc(C(F)(F)F)cc3)c3ccccn23)cc1` [Compound 51], the Normalized cell viability with THP-1 cells is recorded as 1.32. The “Normalized RU (relative unit of ISRE reporter signal)” value with ISRE reporter signal was 6.08.
The corresponding values for `COc1ccc(C(=O)c2cc(-c3ccc(C(C)=O)cc3)c3ccccn23)cc1` [Compound 52] are 1.15 and 1.61.
The like results for `COc1ccc(C(=O)c2cc(-c3ccccc3)c3ccccn23)cc1` [Compound 53] were, in that order, 1.18 and 1.30.
The corresponding values for `COc1ccc(C(=O)c2cc(-c3ccc(OC)cc3)c3ccccn23)cc1` [Compound 54] are 1.16 and 1.51.
With `COc1ccc(C(=O)c2cc(-c3ccc(N(C)C)cc3)c3ccccn23)cc1` [Compound 55], the Normalized cell viability with THP-1 cells was determined as 1.24. Also, the “Normalized RU (relative unit of ISRE reporter signal)” value in the data set with ISRE reporter signal worked out at 1.65.
The like results for `CCN(CC)c1ccc(C(=O)c2cc(-c3ccc(C(F)(F)F)cc3)c3ccccn23)cc1` [Compound 56] were, in that order, 1.23 and 1.40.
The corresponding values for `CCN(CC)c1ccc(C(=O)c2cc(-c3ccc(C(C)=O)cc3)c3ccccn23)cc1` [Compound 57] are 1.40 and 0.93.
The corresponding values for `CCN(CC)c1ccc(C(=O)c2cc(-c3ccccc3)c3ccccn23)cc1` [Compound 58] are 1.01 and 0.66.
`CCN(CC)c1ccc(C(=O)c2cc(-c3ccc(OC)cc3)c3ccccn23)cc1` [Compound 59]: the Normalized cell viability in the data set with THP-1 cells stood at 1.09. In addition, in the data set on ISRE reporter signal, the “Normalized RU (relative unit of ISRE reporter signal)” value is 1.27.
As for `CCN(CC)c1ccc(C(=O)c2cc(-c3ccc(N(C)C)cc3)c3ccccn23)cc1` [Compound 60], the Normalized cell viability in the data set with THP-1 cells is on record as 1.28. Moreover, in the data set on ISRE reporter signal, the “Normalized RU (relative unit of ISRE reporter signal)” value was determined as 1.25.
The like results for `CC(=O)c1ccn2c(C(=O)c3ccccc3)cc(-c3ccncc3)c2c1` [Compound 61] were, in that order, 1.11 and 1.98.
The corresponding values for `CC(=O)c1ccn2c(C(=O)c3ccccc3)cc(-c3ccc(C)c(N)c3)c2c1` [Compound 62] are 1.23 and 2.86.
Consider `CC(=O)c1ccn2c(C(=O)c3ccccc3)cc(-c3ccc(N)cc3)c2c1` [Compound 63], for which, in the data set with THP-1 cells, the Normalized cell viability turned out to be 0.98. Besides, in the data set with ISRE reporter signal, the “Normalized RU (relative unit of ISRE reporter signal)” value is reported as 2.08.
The corresponding values for `CCN(CC)c1ccc(-c2cc(C(=O)c3ccccc3)n3ccc(C(C)=O)cc23)cc1` [Compound 64] are 1.24 and 1.13.
The like results for `CCCN(CCC)c1ccc(-c2cc(C(=O)c3ccccc3)n3ccc(C(C)=O)cc23)cc1` [Compound 65] were, in that order, 1.25 and 1.13.
The like results for `CC(=O)c1ccn2c(C(=O)c3ccccc3)cc(-c3ccc(C(=O)O)cc3)c2c1` [Compound 66] were, in that order, 1.32 and 1.16.
As for `O=C(c1ccccc1)c1cc(-c2ccncc2)c2ccccn12` [Compound 67], the Normalized cell viability in the data set on THP-1 cells turned out to be 1.34. In addition, the “Normalized RU (relative unit of ISRE reporter signal)” value in the data set on ISRE reporter signal is reported as 2.03.
The corresponding values for `Cc1ccc(-c2cc(C(=O)c3ccccc3)n3ccccc23)cc1N` [Compound 68] are 1.17 and 3.16.
The like results for `Nc1ccc(-c2cc(C(=O)c3ccccc3)n3ccccc23)cc1` [Compound 69] were, in that order, 1.19 and 2.47.
The corresponding values for `CCN(CC)c1ccc(-c2cc(C(=O)c3ccccc3)n3ccccc23)cc1` [Compound 70] are 1.19 and 1.21.
With `CCCN(CCC)c1ccc(-c2cc(C(=O)c3ccccc3)n3ccccc23)cc1` [Compound 71], the Normalized cell viability with THP-1 cells is listed as 1.01. For the same molecule, the “Normalized RU (relative unit of ISRE reporter signal)” value with ISRE reporter signal was found to be 0.96.
The like results for `CC(=O)c1cc(-c2ccc(C(F)(F)F)cc2)c2cc(C(F)(F)F)ccn12` [Compound 73] were, in that order, 0.78 and 1.54.
Consider `CC(=O)c1ccc(-c2cc(C(C)=O)n3ccc(C(F)(F)F)cc23)cc1` [Compound 74], for which the Normalized cell viability with THP-1 cells is 0.75. In addition, in the data set with ISRE reporter signal, the “Normalized RU (relative unit of ISRE reporter signal)” value is on record as 2.06.
The like results for `CC(=O)c1cc(-c2ccccc2)c2cc(C(F)(F)F)ccn12` [Compound 75] were, in that order, 1.25 and 1.76.
The like results for `COc1ccc(-c2cc(C(C)=O)n3ccc(C(F)(F)F)cc23)cc1` [Compound 76] were, in that order, 1.14 and 2.02.
As for `CC(=O)c1cc(-c2ccc(N(C)C)cc2)c2cc(C(F)(F)F)ccn12` [Compound 77], in the data set with THP-1 cells, the Normalized cell viability was determined as 1.28. For the same molecule, the “Normalized RU (relative unit of ISRE reporter signal)” value with ISRE reporter signal is on record as 1.24.
The like results for `CC(=O)c1ccn2c(C(C)=O)cc(-c3ccc(C(F)(F)F)cc3)c2c1` [Compound 78] were, in that order, 0.46 and 2.43.
Take `CC(=O)c1ccc(-c2cc(C(C)=O)n3ccc(C(C)=O)cc23)cc1` [Compound 79]: in the data set on THP-1 cells, the Normalized cell viability was found to be 1.19. Moreover, the “Normalized RU (relative unit of ISRE reporter signal)” value in the data set with ISRE reporter signal is listed as 3.80.
Consider `CC(=O)c1ccn2c(C(C)=O)cc(-c3ccccc3)c2c1` [Compound 80], for which the Normalized cell viability in the data set with THP-1 cells was found to be 1.22. Moreover, the “Normalized RU (relative unit of ISRE reporter signal)” value with ISRE reporter signal was found to be 1.98.
